The values that follow are results of earlier work, collected in US20210244941A1, “METHODS AND APPARATUS FOR A WEARABLE ELECTRONIC DIGITAL THERAPEUTIC DEVICE” (KINAPTIC, LLC, priority 2018, published 2021).

Read-outs that look alike come from different tables or passages of the source.

The conditions of data set [1]: rats, oral dosing.
For data set [2] the following is noted: dogs, oral dosing.
Test in data set [3]: not given
This is another data set of the same source.

Where [4] appears, read: single- (up to 80 mg) and multiple-dose studies, healthy subjects and patients.

For the molecule `C[N+](C)(C)CCOC(N)=O` [carbachol], the sweat induction entry in the data set on sweat glands (gel containing carbachol on sensors, sedentary patient) was “effective to induce sweat”. In the data set with sweat glands (iontophoresis, electrical current at 0.2 milliamps into upper layer of skin), the “physical sensation or discomfort” value is “no physical sensation or discomfort”.

For the molecule `O=C(NC[C@H]1CN(c2ccc(N3CCOCC3=O)cc2)C(=O)O1)c1ccc(Cl)s1` [rivaroxaban], the absolute bioavailability in data set [1] is reported as 57-66%. For the same molecule, in data set [2], the absolute bioavailability is 60-86%. Besides, under “single doses, humans”, the absorption result is “rapid absorption”; the oral bioavailability result is given as “high”; the safety and tolerability result is “safe and well tolerated”. For the same molecule, under setting [4], the accumulation entry is given as “no evidence of accumulation” and the pharmacokinetics versus dose entry is listed as “dose-proportional”. For the same molecule, in data set [3] (animal models), the “increase in area under the concentration-time curve (AUC)” value is reported as “dose proportional increase”. In addition, in data set [3] (animal models, oral dosing), the “absorption after oral dosing” value was “absorbed rapidly”. Also, the excretion entry in data set [3] (rats and dogs, renal and faecal/biliary routes) is recorded as “rapidly excreted”.
